The subject of experiment [1] is 35S::PID T2 plants. In words: Lateral root formation of 35S::PID T2 plants grown on plates supplemented with NAA. The format is in vivo, Arabidopsis. As to conditions: 10 days on 0.1 μm NAA. Here is the method: (§1) Plants were grown in florescent light under long-day conditions (16 hours light, 8 hours dark). Wild type was Columbia. Transgenic plants were generated by vacuum infiltration (Bechtold et al. (1993) C. R. Acad. Sci. 316:1194-1199). For root gravitropism experiments, seeds were grown on vertically oriented 1/2×MS plates at 24° C.
To determine whether the loss of lateral root formation in 35::PID plants could be bypassed by exogenous auxin, T2 plants were grown on plates supplemented with the synthetic auxin-analog NAA ([…]). […] As in the previous experiment, there was a perfect correlation between loss of lateral root formation and agravitropic root growth.

Experiment [2] deals with 35S::PID plants. As to the kind of experiment: Root growth in response to exogenous auxin in 35S::PID plants (selected on kanamycin plates with NAA). The format is in vivo, Arabidopsis. The following applies: for Lateral roots / Primary root length: mean ± standard deviation. Here is the method: as §1
The failure of 35S::PID plants to develop lateral roots in response to exogenous auxin can be explained by defects in either auxin uptake or response. To distinguish between these possibilities, 35S: PID plants was selected on plates containing kanamycin and 0, 0.1, 1.0 or 10.0 μM NAA.

Experiment [3] relates to Arabidopsis MAP kinase. As to conditions: tobacco cell extract, protoplasts treated with 2,4-D; cited from earlier work.

For the compound `O=C(O)Cc1ccc2ccccc2c1` [NAA, β-napthaleneacetic acid], in experiment [1] (T2 plants), the “Bypass of the block in lateral root formation caused by PID overexpression” value is “did not overcome the block in lateral root formation”. In addition, in experiment [1] (T2 progeny of 35S::PID, 11 of 37 germinated seedlings (range 18-31), remaining 26 produced none), the “Average number of lateral roots in seedlings that produced lateral roots” value was found to be 24. Also, the “Lateral root growth at very high NAA concentrations” value in experiment [2] (35S::PID plants) is listed as “still inhibited”. In experiment [2] (35S::PID plants, 0, 0.1, 1.0 or 10.0 μM NAA), the “Primary root elongation with increasing NAA concentration” value is recorded as “progressively inhibited”. Further, the Lateral roots in experiment [2] (35S::PID plants, [NAA] 0.1 μM) is 0.1 ± 0.3; in experiment [2] (35S::PID plants, [NAA] 1 μM), 0.1 ± 0.3; in experiment [2] (35S::PID plants, [NAA] 10 μM) it was 0.7 ± 1.2. The Primary root length in experiment [2] (35S::PID plants, [NAA] 0.1 μM) is given as 11.6 ± 5.9 mm; in experiment [2] (35S::PID plants, [NAA] 1 μM), 6.0 ± 3.1 mm; in experiment [2] (35S::PID plants, [NAA] 10 μM) it was 1.4 ± 0.5 mm.

Turning to `O=C(O)COc1ccc(Cl)cc1Cl` [2,4-D], the “Effectiveness of MAP kinase phosphorylation by extract of treated protoplasts versus extracts from auxin-starved cultures” value in experiment [3] is “three to four-fold more effective”.

(Values after patent publication US6632669B2, “Plant kinases and methods of modulation of their activity in plants” (The Salk Institute for Biological Studies, priority 1999, dated 2003).)
